The conditions of series [1]: Phase I clinical evaluation (Hochhauser et al., 2009); cited from earlier work.
In series [2] the test system is KB (cervical carcinoma). In words: In vitro cytotoxicity assay (WST-8), KB cells. The settings on record: Homo sapiens, 120 h, read-out: IC50 values for free cytotoxic compounds, KB. On the procedure:
(§1) The following cell lines were used for the studies: KB (cervical carcinoma, ATCC), NCI-H2110 (Non Small Cell Lung Carcinoma, ATCC), Namalwa (Burkitt's lymphoma, ATCC), and T47D (breast epithelial cancer, ATCC). The cells were maintained and plated for the cytotox experiments in media recommended by the manufacturers. Cells were plated in the 96-well flat bottom plates at a seeding density of 1,000 cells per well (KB, Namalwa) or 2,000 cell per well (NCI H2110, T47D). […] To determine specificity of cytotoxic activity of the conjugates an excess of unconjugated antibody was added to a separate set of diluted conjugates (+block samples, IC50 table). The plates were incubated at 37° C., 5% CO2 for either 4 days (T47D cells) or 5 days (KB, NCI H2110 cells). Alamar blue assay (Invitrogen) was used to determine viability of T47D cells, and WST-8 assay (Donjindo Molecular Technologies, Inc.) was applied for viability of KB, NCI H2110, Namalwa cells. The assays were performed in accordance with the manufacturer's protocols. Killing curves and IC50 were generated using a sigmoidal dose-response nonlinear regression curve fit (GraphPad Software Inc.).
A general note: Formazan colour is commonly taken as a measure of viable cells.

The test system of series [3] is Namalwa (Burkitt's lymphoma). The series is described as follows: In vitro cytotoxicity assay (WST-8), Namalwa cells. The note with it: read-out: IC50 values for free cytotoxic compounds, Namalwa. On the procedure:
as §1

Each structure is given as a SMILES string.

For the compound `C=C1C[C@H]2C=Nc3cc(OCCCOc4cc5c(cc4OC)C(=O)N4CC(=C)C[C@H]4C=N5)c(OC)cc3C(=O)N2C1` [SJG-136], the maximum tolerated dose in series [1] is recorded as 45 μg/m^2. `COc1cc2c(cc1OCCCCCOc1cc3c(cc1OC)C(=O)N1c4ccccc4C[C@H]1CN3)N=C[C@@H]1Cc3ccccc3CN1C2=O` [Compound 123]: the half-maximal inhibitory concentration (IC50) (usually the concentration needed to halve the response being measured) was determined as 0.003 nM in series [2] and 1 pM in series [3]. Turning to `COc1cc2c(cc1OCCCCCOc1cc3c(cc1OC)C(=O)N1c4ccccc4C[C@H]1CN3)N=C[C@@H]1Cc3ccccc3N1C2=O` [Compound 162], the results for the 50% inhibitory concentration (IC50) in series [2] and in series [3] were 0.02 nM and 3 pM, respectively. Turning to `COc1cc2c(cc1OCc1cccc(COc3cc4c(cc3OC)C(=O)N3c5ccccc5C[C@H]3CN4)c1)N=C[C@@H]1Cc3ccccc3N1C2=O` [Compound 150], the IC50 in series [2] was determined as 0.008 nM; in series [3], 1 pM. On to `COC(=O)c1cc(COc2cc3c(cc2OC)C(=O)N2c4ccccc4C[C@H]2C=N3)cc(COc2cc3c(cc2OC)C(=O)N2c4ccccc4C[C@H]2CN3)c1` [Compound 157], for which the IC50 in series [2] amounted to 0.003 nM; in series [3], 1 pM. `COc1cc2c(cc1OCCCOc1cc3c(cc1OC)C(=O)N1c4ccccc4C[C@H]1CN3)N=C[C@@H]1Cc3ccccc3N1C2=O` [Compound 161]: the IC50 amounted to 0.25 nM in series [2] and 30 pM in series [3].

For the compound `COc1cc2c(cc1OCCCCCOc1cc3c(cc1OC)C(=O)N1Cc4ccccc4C[C@H]1CN3)N=C[C@@H]1Cc3ccccc3N1C2=O` [Compound 108], the IC50 in series [2] came out at 0.05 nM; in series [3], 10 pM. `COCCOCCOCCNc1cc(COc2cc3c(cc2OC)C(=O)N2c4ccccc4C[C@H]2C=N3)cc(COc2cc3c(cc2OC)C(=O)N2c4ccccc4C[C@H]2CN3)c1` [Compound 155]: the concentration for half-maximal inhibition (IC50) came out at 0.02 nM in series [2] and 2 pM in series [3]. In the same order, the values of `COc1cc2c(cc1OCc1cccc(COc3cc4c(cc3OC)C(=O)N3c5ccccc5C[C@H]3CN4)n1)N=C[C@@H]1Cc3ccccc3N1C2=O` [Compound 159] are 0.003 nM and 1 pM.
